What was measured:
[1] = Particle size of budesonide blend starting materials (HELOS/RODOS laser diffraction); type: physicochemical; conditions: RODOS laser diffraction, 3 bar, 50% rotation
Method: Particle size distribution of alpha-lactose monohydrate, magnesium stearate and budesonide were analyzed using a laser diffractometer (Sympatec, Clausthal-Zellerfeld, Germany). […] About 0.5 g of each component was carefully loaded on the turntable of the vibratory feeding module. Samples were dispersed at 3 bar and 50% rotation (FIG. 11). Data was acquired using Windox software (Sympatec, Clausthal-Zellerfeld, Germany) and volume-based size distribution was calculated using Fraunhofer theory.
Table 6 lists the particle size distribution for starting materials as determined by laser diffraction. Budesonide was confirmed to be sufficiently micronized (e.g. less than 5 μm). Magnesium stearate and lactose size distributions were within the size ranges provided by manufacturers.

[2] = Geometric particle size of rifampicin blends and starting materials (HELOS laser diffraction, RODOS); type: physicochemical; conditions: Table 3; for X10 / X50 / X90: particle size distribution
Method: The geometric particle size of the powder blends was measured using laser diffraction (HELOS, Sympatec, Germany) for the pre-blend and after each blending cycle. Measurements were done using a RODOS powder disperser at a pressure drop of 1 bar and rotor speed set at 50% (FIG. 6). […] The particles diameter is expressed as the mean Xn diameter values, where n % of the particles have a diameter≤X. Jaffari, S., et al. Rapid Characterisation of the Inherent Dispersibility of Respirable Powders Using Dry Dispersion Laser Diffraction. Int. J. Pharm. […] A measure of particle size distribution breadth is represented by the calculated factor “Span”. This was calculated using the following expression: (X90−X10)/X50.
Particle size analysis was conducted on blended materials and compared to pre-blend and lactose/magnesium stearate controls.

Molecule | D10 [1] [μm] | D50 [1] [μm] | D90 [1] [μm] | Span ((X90-X10)/X50) [2] | X10 [2] [μm] | X50 [2] [μm] | X90 [2] [μm]
O.OC[C@H]1O[C@@H](O[C@H]2[C@H](O)[C@@H](O)[C@@H](O)O[C@@H]2CO)[C@H](O)[C@@H](O)[C@H]1O [Lactose, Alpha-lactose monohydrate] | 32.09 | 80.34 | 111.84 | – | – | – | –
Magnesium stearate | 1.29 | 4.45 | 9.93 | 1.87 | 2.08 | 8.14 | 17.34
O.OC[C@H]1O[C@@H](O[C@H]2[C@H](O)[C@@H](O)[C@@H](O)O[C@@H]2CO)[C@H](O)[C@@H](O)[C@H]1O [Lactohale 206] | – | – | – | – | 1.91 | 4.15 | 116.14
